For test [1], the target named is T1, KRas-mediated phosphorylation of ERK in MKN1 cells (Homo sapiens, UniProt P01116).
T1 construct: pERK HTRF read-out
The experiment in a line: Inhibition of KRas-mediated phosphorylation of ERK (HTRF), MKN1 cells. The format is cell-based. The note with it: MKN1 cells (KRas WT); HTRF pERK; 3 h incubation. Here is the method:
Inhibition of KRas Phosphorylation of ERK (HTRF) by Exemplary Compounds of Formula (Ia) or (Ib)
Cisbio HTRF Advanced pERK Assay Catalog #64AERPEH • Cells: MKN1, PSN1 • Procedure: • 1. Day 1: Seed 6,000 cells/well −25 μl/well in 384-well white solid bottom plate; RPM1_10% FBS. Incubate overnight at 37 °C/5% CO2. • 2.

Test [2] deals with T2, KRas-mediated phosphorylation of ERK in A549 cells (Homo sapiens, UniProt P01116, G12S).
T2 construct: pERK HTRF read-out
Description: Inhibition of KRas-mediated phosphorylation of ERK (HTRF), A549 cells. The format is cell-based. The note with it: HTRF pERK, 3 h incubation. (Time-resolved FRET reads energy transfer from a long-lived donor to a nearby acceptor.)

Another test concerns the target T3, KRas G12S (Homo sapiens, UniProt P01116, G12S).
T3 construct: Biotinylated KRas (corresponding to amino acids 1-169, produced at Accelegan Inc.); biotin (biotinylated); purchased Accelegan Inc
The experiment in a line: KRas binding assay, TR-FRET displacement of Cy5 labelled tracer. The note with it: 60-minute incubation at room temperature, 1% DMSO, pH 7.5. A digest of the protocol: (§1)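 Truncated KRas (1-169), biotinylated, Tb-streptavidin donor; one-hour room-temperature incubation; IC50 by four-parameter curve fitting.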

Another test concerns the target T4, KRas G12C (Homo sapiens, UniProt P01116, G12C).
T4 construct: Biotinylated KRas (corresponding to amino acids 1-169, produced at Accelegan Inc.); biotin (biotinylated); purchased Accelegan Inc
Described as above. The note with it: 60-minute incubation at room temperature, 1% DMSO, pH 7.5. A digest of the protocol: as §1

For a further test, the target named is T5, KRas WT (Homo sapiens, UniProt P01116).
T5 construct: Biotinylated KRas (corresponding to amino acids 1-169, produced at Accelegan Inc.); biotin (biotinylated); purchased Accelegan Inc
Described as above. The note with it: 60-minute incubation at room temperature, 1% DMSO, pH 7.5. A digest of the protocol: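 TR-FRET tracer-displacement readout after 60 min at room temperature, using KRas residues 1-169 (biotinylated) with terbium streptavidin and a Cy5 tracer. Buffer: 50 mM HEPES pH 7.5, 5 mM MgCl2, 0.005% Tween-20, 1 mM DTT, 1% DMSO final. IC50 from 4-parameter fit of POC data.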

Test [3] concerns the target T6, KRas-mediated phosphorylation of ERK in H358 cells (Homo sapiens, UniProt P01116, G12C).
T6 construct: pERK HTRF read-out
Description: Inhibition of KRas-mediated phosphorylation of ERK (HTRF), H358 cells. The format is cell-based. The note with it: HTRF pERK, 3 h incubation.

Broadly, the IC50 is the concentration at which inhibition is half-maximal. Read a low IC50 as higher potency.

Molecules are shown by their SMILES.

T5 sequence (P01116 1-169 isoform P01116-2): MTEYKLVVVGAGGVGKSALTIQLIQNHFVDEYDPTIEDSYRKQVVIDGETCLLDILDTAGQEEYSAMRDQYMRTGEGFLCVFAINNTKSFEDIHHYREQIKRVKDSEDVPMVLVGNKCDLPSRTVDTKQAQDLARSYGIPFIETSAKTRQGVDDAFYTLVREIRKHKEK
T6 sequence (P01116 1-188 isoform P01116-2 G12C): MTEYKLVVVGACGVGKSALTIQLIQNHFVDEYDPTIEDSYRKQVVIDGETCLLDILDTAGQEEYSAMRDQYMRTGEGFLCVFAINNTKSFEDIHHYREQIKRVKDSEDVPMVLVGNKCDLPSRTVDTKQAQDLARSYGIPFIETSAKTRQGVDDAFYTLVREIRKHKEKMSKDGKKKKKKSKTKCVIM
T1 sequence (P01116 1-188 isoform P01116-2): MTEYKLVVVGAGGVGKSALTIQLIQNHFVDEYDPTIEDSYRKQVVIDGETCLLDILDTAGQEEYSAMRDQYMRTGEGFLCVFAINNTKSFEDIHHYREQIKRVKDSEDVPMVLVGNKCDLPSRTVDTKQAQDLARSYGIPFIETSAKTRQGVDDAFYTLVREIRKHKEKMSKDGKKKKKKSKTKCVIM
T2 sequence (P01116 1-188 isoform P01116-2 G12S): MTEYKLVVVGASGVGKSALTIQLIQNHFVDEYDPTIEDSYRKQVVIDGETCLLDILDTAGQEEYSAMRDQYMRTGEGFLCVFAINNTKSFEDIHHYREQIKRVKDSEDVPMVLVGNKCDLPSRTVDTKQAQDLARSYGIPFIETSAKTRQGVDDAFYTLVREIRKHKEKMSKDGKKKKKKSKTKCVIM
T3 sequence (P01116 1-169 isoform P01116-2 G12S): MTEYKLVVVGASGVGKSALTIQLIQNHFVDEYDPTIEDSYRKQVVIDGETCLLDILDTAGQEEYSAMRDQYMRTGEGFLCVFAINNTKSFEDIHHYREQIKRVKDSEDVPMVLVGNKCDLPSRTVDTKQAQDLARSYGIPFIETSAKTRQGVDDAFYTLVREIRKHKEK
T4 sequence (P01116 1-169 isoform P01116-2 G12C): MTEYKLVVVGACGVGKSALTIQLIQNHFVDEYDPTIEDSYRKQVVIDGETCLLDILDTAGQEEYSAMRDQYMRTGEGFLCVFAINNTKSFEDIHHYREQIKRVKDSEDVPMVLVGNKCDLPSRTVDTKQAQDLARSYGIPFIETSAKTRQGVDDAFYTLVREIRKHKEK

`CCc1c(F)ccc2cc(O)cc(-c3ncc4c(NC[C@@H]5C[C@H]5C(=O)N(C)C(C)=O)nc(OC[C@@]56CCCN5C[C@H](F)C6)nc4c3F)c12` [Example 281, trans-N-acetyl-2-(((7-(8-ethyl-7-fluoro-3-hydroxynaphthalen-1-yl)-8-fluoro-2-(((2R,7aS)-2-fluorotetrahydro-1H-pyrrolizin-7a(5H)-yl)methoxy)pyrido[4,3-d]pyrimidin-4-yl)amino)methyl)-N-methylcyclopropane-1-carboxamide]: the half-inhibitory concentration (IC50) came out at 41 nM in test [1]; 243 nM in test [2]; 10 nM on KRas G12S; 9 nM at KRas G12C; 8 nM on KRas WT; 198 nM in test [3].
`CCc1c(F)ccc2cc(O)cc(-c3ncc4c(N(C)C(C)CCC(=O)N(C)C(C)=O)nc(OC[C@@]56CCCN5C[C@H](F)C6)nc4c3F)c12` (stereo partly drawn) [Example 282, N-acetyl-4-((7-(8-ethyl-7-fluoro-3-hydroxynaphthalen-1-yl)-8-fluoro-2-(((2R,7aS)-2-fluorotetrahydro-1H-pyrrolizin-7a(5H)-yl)methoxy)pyrido[4,3-d]pyrimidin-4-yl)(methyl)amino)-N-methylpentanamide]: the 50% inhibitory concentration (IC50) came to 870 nM in test [1]; 185 nM in test [2]; 44 nM on KRas G12S; 82 nM at KRas G12C; 184 nM on KRas WT; 1290 nM in test [3].
Take `CCc1c(F)ccc2cc(O)cc(-c3ncc4c(N(C)CC(C)CC(=O)N(C)C(C)=O)nc(OC[C@@]56CCCN5C[C@H](F)C6)nc4c3F)c12` (stereo partly drawn) [Example 283, N-acetyl-4-((7-(8-ethyl-7-fluoro-3-hydroxynaphthalen-1-yl)-8-fluoro-2-(((2R,7aS)-2-fluorotetrahydro-1H-pyrrolizin-7a(5H)-yl)methoxy)pyrido[4,3-d]pyrimidin-4-yl)(methyl)amino)-N,3-dimethylbutanamide]: the concentration for half-maximal inhibition (IC50) was determined as 323 nM in test [1]; 701 nM in test [2]; 134 nM at KRas G12S; 183 nM on KRas G12C; 103 nM at KRas WT; 1320 nM in test [3].
`CCc1c(F)ccc2cc(O)cc(-c3ncc4c(N(C)CCC(C)C(=O)N(C)C(C)=O)nc(OC[C@@]56CCCN5C[C@H](F)C6)nc4c3F)c12` (stereo partly drawn) [Example 284, N-acetyl-4-((7-(8-ethyl-7-fluoro-3-hydroxynaphthalen-1-yl)-8-fluoro-2-(((2R,7aS)-2-fluorotetrahydro-1H-pyrrolizin-7a(5H)-yl)methoxy)pyrido[4,3-d]pyrimidin-4-yl)(methyl)amino)-N,2-dimethylbutanamide]: the half-inhibitory concentration (IC50) in test [1] is 446 nM; in test [2], 7 nM; on KRas G12S it was 5 nM; on KRas G12C, 8 nM; at KRas WT, 77 nM; in test [3] it was 39 nM.
In the case of `CCc1c(F)ccc2cc(O)cc(-c3ncc4c(N5CCCC(C(=O)N(C)C(C)=O)CC5)nc(OC[C@@]56CCCN5C[C@H](F)C6)nc4c3F)c12` (stereo partly drawn) [Example 285, N-acetyl-1-(7-(8-ethyl-7-fluoro-3-hydroxynaphthalen-1-yl)-8-fluoro-2-(((2R,7aS)-2-fluorotetrahydro-1H-pyrrolizin-7a(5H)-yl)methoxy)pyrido[4,3-d]pyrimidin-4-yl)-N-methylazepane-4-carboxamide], the IC50 in test [1] amounted to 2420 nM; in test [2], 151 nM; on KRas G12S it was 175 nM; on KRas G12C, 882 nM; at KRas WT, 492 nM; in test [3], 4290 nM.
For `COC(=O)C1CCN(c2nc(OC[C@@]34CCCN3C[C@H](F)C4)nc3c(F)c(-c4ccc(F)c5sc(N)c(C#N)c45)c(Cl)cc23)CC1` [Example 286, Methyl 1-(7-(2-amino-3-cyano-7-fluorobenzo[b]thiophen-4-yl)-6-chloro-8-fluoro-2-(((2R,7aS)-2-fluorotetrahydro-1H-pyrrolizin-7a(5H)-yl)methoxy)quinazolin-4-yl)piperidine-4-carboxylate], the half-inhibitory concentration (IC50) in test [1] was 24 nM; in test [2], 237 nM; on KRas G12S, 15 nM; on KRas G12C, 11 nM; on KRas WT it was 6 nM; in test [3] it was 106 nM.
Take `N#Cc1c(N)sc2c(F)ccc(-c3c(Cl)cc4c(N5CCC(C(=O)Oc6ccccc6)CC5)nc(OC[C@@]56CCCN5C[C@H](F)C6)nc4c3F)c12` [Example 287, phenyl 1-(7-(2-amino-3-cyano-7-fluorobenzo[b]thiophen-4-yl)-6-chloro-8-fluoro-2-(((2R,7aS)-2-fluorotetrahydro-1H-pyrrolizin-7a(5H)-yl)methoxy)quinazolin-4-yl)piperidine-4-carboxylate]: the half-maximal inhibitory concentration (IC50) in test [1] stood at 360 nM; in test [2] it was 104 nM; at KRas G12S, 16 nM; on KRas G12C, 6 nM; on KRas WT, 170 nM; in test [3], 13 nM.
For `N#Cc1c(N)sc2c(F)ccc(-c3c(Cl)cc4c(N5CCC(C(=O)Oc6ccccc6F)CC5)nc(OC[C@@]56CCCN5C[C@H](F)C6)nc4c3F)c12` [Example 288, 2-fluorophenyl 1-(7-(2-amino-3-cyano-7-fluorobenzo[b]thiophen-4-yl)-6-chloro-8-fluoro-2-(((2R,7aS)-2-fluorotetrahydro-1H-pyrrolizin-7a(5H)-yl)methoxy)quinazolin-4-yl)piperidine-4-carboxylate], the IC50 in test [1] worked out at 246 nM; in test [2] it was 77 nM; at KRas G12S, 20 nM; on KRas G12C, 9 nM; on KRas WT, 143 nM; in test [3], 24 nM.
Regarding `CN(C(=O)C1CCN(c2nc(OC[C@@]34CCCN3C[C@H](F)C4)nc3c(F)c(-c4ccc(F)c5sc(N)c(C#N)c45)c(Cl)cc23)CC1)c1cccnc1` [Example 289, 1-(7-(2-amino-3-cyano-7-fluorobenzo[b]thiophen-4-yl)-6-chloro-8-fluoro-2-(((2R,7aS)-2-fluorotetrahydro-1H-pyrrolizin-7a(5H)-yl)methoxy)quinazolin-4-yl)-N-methyl-N-(pyridin-3-yl)piperidine-4-carboxamide], the IC50 in test [1] amounted to 33 nM; in test [2], 271 nM; on KRas G12S, 18 nM; at KRas G12C, 10 nM; at KRas WT it was 5 nM; in test [3], 81 nM.
`CN(C(=O)C1CCN(c2nc(OC[C@@]34CCCN3C[C@H](F)C4)nc3c(F)c(-c4ccc(F)c5sc(N)c(C#N)c45)c(Cl)cc23)CC1)c1ccncn1` [Example 290, 1-(7-(2-amino-3-cyano-7-fluorobenzo[b]thiophen-4-yl)-6-chloro-8-fluoro-2-(((2R,7aS)-2-fluorotetrahydro-1H-pyrrolizin-7a(5H)-yl)methoxy)quinazolin-4-yl)-N-methyl-N-(pyrimidin-4-yl)piperidine-4-carboxamide]: the concentration for half-maximal inhibition (IC50) came to 18 nM in test [1]; 142 nM in test [2]; 13 nM on KRas G12S; 9 nM on KRas G12C; 10 nM on KRas WT; 29 nM in test [3].
